Reference: US4659712A, “Fodder additive and a process for the preparation” (Richter Gedeon Vegyeszeti Gyar Rt., priority 1984, dated 1987)
Several values for one entry are separate records, joined by “and”; a condition that tells them apart may be missing. Equal values may be shown once. Entries after “also recorded” stand apart in the source; their conditions may differ.

Key:
[1] = Quinoxaline-2-carboxylic acid (Carbadox metabolite) residue in pig muscle (ham, chop), liver and kidney after flumecinol treatment; assay type: in vivo, pigs; parameters: key to amount of quinoxaline-2-carboxylic acid / quinoxaline-2-carboxylic acid content of the muscle tissue / quinoxaline-2-carboxylic acid content of the liver / quinoxaline-2-carboxylic acid content of the kidney: .0.: no detectable amount; details: for quinoxaline-2-carboxylic acid content of the kidney / quinoxaline-2-carboxylic acid content of the liver / quinoxaline-2-carboxylic acid content of the muscle tissue: average, n = 3; for amount of quinoxaline-2-carboxylic acid: individual animal
Method: (§1) Tests were carried out at a large-scale pig farm, where 25 mg/kg of body weight of Carbadox admixed with the fodder of the pigs were administered to pigs having a live weight of 40 kg. From a population fed with this fodder 27 animals, each weighing exactly 40 kg, were selected, by weighing them separately. The selected animals were railed off in a place suitable for further tests. From this time on (zero time) the animals were given the same fodder as before, except Carbadox.
(§2) The 27 animals were divided into three groups as follows:
(§3) Group I: 12 animals (ser. Nos. from 1 to 12) slaughtering: three animals each when starting the experiment (0 time) and on the 1st, 5th and 15th days (positive control group) Group II: 9 amimals (ser. Nos. from 13 to 21) treatment: a single 40 mg/kg of body weight dose of flumecinol at zero time. slaughtering: three animals each on the 1st, 5th and 15th days (group treated with a single dose of flumecinol) Group III: 6 animals (ser. Nos. 22 to 27) treatment: 40 mg/kg of body weight of flumecinol for three days, at zero time and on the 1st and 2nd day slaughtering: three animals each on the 5th and 15th days (group treated with flumecinol three times) Flumecinol is available as a micropellet containing 19.02% of active ingredient. From this and a 1% starch hydrolysate a suspension is prepared, containing 40 mg of flumecinol per 1 ml (dose used for one kg of body weight). The active compound was administered 8 o'clock in the morning, without previous fasting, through a stomach tube, in order to ensure exact conditions for the experiments. The animals were killed and samples were taken from 8 to 11 o'clock in the morning, whereupon the samples were transported into the analytical laboratory within one hour, under cooling.
(§4) Quinoxaline-2-carboxylic acid (a metabolite of Carbadox) was determined in the chop, liver and kidney tissues of three animals from each group. Each muscle and liver sample was subjected to organoleptic examination also (boiling test).
The quantity of quinoxaline-2-carboxylic acid was determined essentially following the method described in the USDA Chemistry Laboratory Guidebook (5007 Determination of Carbadox):
Following the alkaline hydrolysis of the muscle, liver and kidney samples, the hydrolysates were strongly acidified and the quinoxaline-2-carboxylic acid was extracted with ethyl acetate. The pH of the ethyl acetate extract was adjusted to 6 with a citric acid buffer, whereupon the mixture was extracted with benzene. In the next step the acid was esterified with a mixture of n-propanol and sulfuric acid, to yield propyl quinoxaline-2-carboxylate. The quantity of the latter compound was determined (after purification by thin layer chromatography) by gas chromatography. This cumbersome test procedure was always performed together with a […] control sample to which a known amount (0.2 μg-1.0 μg) of quinoxaline-2-carboxylic acid (standard) was added. The percentage of the active ingredient recovered from this sample was taken into account when calculating the residual active substance amount. In this way the error of the process was eliminated.
The test results, if not otherwise indicated, are given in μg/kg.
The quantity of quinoxaline-2-carboxylic acid in the above-specified slaughtering times is shownn in Table 1. The tests were carried out on three animals and Table 1 contains the results obtained on the individual animals. The results were also statistically evaluated for the various sorts of tissues, although in this specific case this was not really necessary, since according to the valid prescriptions the products of animal origin should not contain Carbadox at all, i.e. the limit is zero. Therefore, we considered it more important to determine when the animal tissues become entirely Carbadox-free, than to observe the differences among the tissues of the various groups of animals in the time when they were killed.

[2] = test system: polysubstrate monooxygenase enzyme system of the liver; test: Induction of the polysubstrate monooxygenase enzyme system of the liver
[3] = Organoleptic examination (boiling test) of muscle and liver tissues of pigs treated with Carbadox and flumecinol; assay type: in vivo; parameters: key to visual observation / organoleptic (odor) score: 1: negative; 2: slight strange (indeterminable) odor; 3: some strange (slight medicamentlike) odor; 4: definite strange (more expressed medicament) odor; details: for visual observation / organoleptic (odor) score: individual animal
Method: as §1, §2, §3, §4

[4] = one treatment 40 mg/kg, 1st day
[5] = one treatment 40 mg/kg, 1st day, chop
[6] = one treatment 40 mg/kg, 1st day, ham
[7] = one treatment 40 mg/kg, 5th day
[8] = one treatment 40 mg/kg, 5th day, chop
[9] = one treatment 40 mg/kg, 5th day, ham
[10] = one treatment 40 mg/kg, 15th day
[11] = one treatment 40 mg/kg, 15th day, chop
[12] = one treatment 40 mg/kg, 15th day, ham
[13] = one treatment 40 mg/kg, 1st day, liver
[14] = one treatment 40 mg/kg, 5th day, liver
[15] = one treatment 40 mg/kg, 15th day, liver
[16] = three treatments 40 mg/kg, 5th day
[17] = three treatments 40 mg/kg, 5th day, chop
[18] = three treatments 40 mg/kg, 5th day, ham
[19] = three treatments 40 mg/kg, 15th day
[20] = three treatments 40 mg/kg, 15th day, chop
[21] = three treatments 40 mg/kg, 15th day, ham
[22] = three treatments 40 mg/kg, 5th day, liver
[23] = three treatments 40 mg/kg, 15th day, liver

In the case of CCC(O)(c1ccccc1)c1cccc(C(F)(F)F)c1 (centres unmarked) [flumecinol, 1-(3-trifluoromethylphenyl)-1-(phenyl)-propan-1-ol], the “residue in muscle tissues and kidney” value ([1]; 40 mg/kg daily for three subsequent days, 5th day) was “free of residue on the 5th day”, the “residue in kidney (so in the source)” value ([1]; 40 mg/kg daily for three subsequent days, 15th day) was “free of residue on the 15th day” and the “residual quinoxaline-2-carboxylic acid in muscle” value ([1]; 5th day after termination of Carbadox, one or three treatments) was “no residual quinoxaline-2-carboxylic acid could be detected”. For the same compound, the “residual Carbadox in muscle vs. control” value ([1]; Group II, one dose, 24 hours after treatment) was “significantly lower than in the control animals slaughtered at the same time”, the “residue in the kidney” value ([1]; addition in three subsequent days, kidney, 5th and 15th day) was “no residue was detected either on the 5th or on the 15th day” and the “quinoxaline-2-carboxylic acid elimination from the muscle tissue” value ([1]; flumecinol treatment, muscle) was “significant acceleration of quinoxaline-2-carboxylic acid elimination from the muscle tissue”. For the same compound, the “quinoxaline-2-carboxylic acid content of the kidney” value [1, 4] was 30.67 µg/kg, the “quinoxaline-2-carboxylic acid content of the liver” value [1, 4] was 64.67 µg/kg and the “quinoxaline-2-carboxylic acid content of the muscle tissue” value [1, 5] was 5.33 µg/kg. The “quinoxaline-2-carboxylic acid content of the muscle tissue” value [1, 6] was 1.33 µg/kg, the “quinoxaline-2-carboxylic acid content of the muscle tissue” value ([1]; one treatment 40 mg/kg, 1st day, total) was 3.33 µg/kg and the “quinoxaline-2-carboxylic acid content of the kidney” value [1, 7] was 10.00 µg/kg. The “quinoxaline-2-carboxylic acid content of the liver” value [1, 7] was 12.00 µg/kg, the “quinoxaline-2-carboxylic acid content of the muscle tissue” value [1, 8] was “.0” and the “quinoxaline-2-carboxylic acid content of the muscle tissue” value [1, 9] was “.0”. For the same compound, the “quinoxaline-2-carboxylic acid content of the muscle tissue” value ([1]; one treatment 40 mg/kg, 5th day, total) was “.0”, the “quinoxaline-2-carboxylic acid content of the kidney” value [1, 10] was “.0” and the “quinoxaline-2-carboxylic acid content of the liver” value [1, 10] was 7.33 µg/kg. For the same compound, the “quinoxaline-2-carboxylic acid content of the muscle tissue” value [1, 11] was “.0”, the “quinoxaline-2-carboxylic acid content of the muscle tissue” value [1, 12] was “.0” and the “quinoxaline-2-carboxylic acid content of the muscle tissue” value ([1]; one treatment 40 mg/kg, 15th day, total) was “.0”. The “amount of quinoxaline-2-carboxylic acid” value [1, 5] was 4 µg/kg and 6 µg/kg, the “amount of quinoxaline-2-carboxylic acid” value [1, 6] was 4 µg/kg and the “amount of quinoxaline-2-carboxylic acid” value ([1]; one treatment 40 mg/kg, 1st day, ham, symbol) was “.0”. The “amount of quinoxaline-2-carboxylic acid” value ([1]; one treatment 40 mg/kg, 1st day, kidney) was 38 µg/kg and 30 µg/kg and 24 µg/kg, the “amount of quinoxaline-2-carboxylic acid” value [1, 13] was 58 µg/kg and 64 µg/kg and 72 µg/kg and the “amount of quinoxaline-2-carboxylic acid” value [1, 8] was “.0”. The “amount of quinoxaline-2-carboxylic acid” value [1, 9] was “.0”, the “amount of quinoxaline-2-carboxylic acid” value ([1]; one treatment 40 mg/kg, 5th day, kidney) was 10 µg/kg and 8 µg/kg and 12 µg/kg and the “amount of quinoxaline-2-carboxylic acid” value [1, 14] was 10 µg/kg and 12 µg/kg and 14 µg/kg. The “amount of quinoxaline-2-carboxylic acid” value [1, 11] was “.0”, the “amount of quinoxaline-2-carboxylic acid” value [1, 12] was “.0” and the “amount of quinoxaline-2-carboxylic acid” value ([1]; one treatment 40 mg/kg, 15th day, kidney) was “.0”. The “amount of quinoxaline-2-carboxylic acid” value [1, 15] was 8 µg/kg and 6 µg/kg, the “metabolite residue in liver” value ([1]; single 40 mg/kg dose, liver, 15th day, 40 mg/kg) was “can be detected even on the 15th day; also recorded: could be still detected on the 15th day” and the “amount of quinoxaline-2-carboxylic acid in liver, decrease” value ([1]; single 40 mg/kg dose, liver, each measuring point) was “significant decrease in the amount of quinoxaline-2-carboxylic acid at each measuring point”. The “residue in the kidney vs. control” value ([1]; single dose, kidney, 1st and 5th days) was “essentially identical with the values obtained in the control group”, the “residue in the kidney” value ([1]; single dose, kidney, 15th day) was “no reside can be detected” and the “metabolite residue in liver, time of detection” value ([1]; three subsequent treatments, liver) was “a metabolite residue can be identified on the 5th day only”. For the same compound, the “metabolite residue in liver vs. control and single dose” value ([1]; three subsequent treatments, liver, 5th day) was “substantially lower amount than in the control animals or in the group treated with a single dose of flumecinol”, the “quinoxaline-2-carboxylic acid content of the kidney” value [1, 16] was “.0” and the “quinoxaline-2-carboxylic acid content of the liver” value [1, 16] was 6.00 µg/kg. The “quinoxaline-2-carboxylic acid content of the muscle tissue” value [1, 17] was “.0”, the “quinoxaline-2-carboxylic acid content of the muscle tissue” value [1, 18] was “.0” and the “quinoxaline-2-carboxylic acid content of the muscle tissue” value ([1]; three treatments 40 mg/kg, 5th day, total) was “.0”. The “quinoxaline-2-carboxylic acid content of the kidney” value [1, 19] was “.0”, the “quinoxaline-2-carboxylic acid content of the liver” value [1, 19] was “.0” and the “quinoxaline-2-carboxylic acid content of the muscle tissue” value [1, 20] was “.0”. The “quinoxaline-2-carboxylic acid content of the muscle tissue” value [1, 21] was “.0”, the “quinoxaline-2-carboxylic acid content of the muscle tissue” value ([1]; three treatments 40 mg/kg, 15th day, total) was “.0” and the “amount of quinoxaline-2-carboxylic acid” value [1, 17] was “.0”. The “amount of quinoxaline-2-carboxylic acid” value [1, 18] was “.0”, the “amount of quinoxaline-2-carboxylic acid” value ([1]; three treatments 40 mg/kg, 5th day, kidney) was “.0” and the “amount of quinoxaline-2-carboxylic acid” value [1, 22] was 4 µg/kg and 6 µg/kg and 8 µg/kg. For the same compound, the “amount of quinoxaline-2-carboxylic acid” value [1, 20] was “.0”, the “amount of quinoxaline-2-carboxylic acid” value [1, 21] was “.0” and the “amount of quinoxaline-2-carboxylic acid” value ([1]; three treatments 40 mg/kg, 15th day, kidney) was “.0”. For the same compound, the “amount of quinoxaline-2-carboxylic acid” value [1, 23] was “.0”, the “induction of the polysubstrate monooxygenase enzyme system” value [2] was “specific inductor of the polysubstrate monooxygenase enzyme system” and the “unpleasant odor released in the tissues by Carbadox administration” value ([3]; flumecinol treatment) was “eliminates the unpleasant odor”. The “visual observation / organoleptic (odor) score” value [3, 5] was 1, the “visual observation / organoleptic (odor) score” value [3, 6] was 1 and the “visual observation / organoleptic (odor) score” value [3, 13] was 3. For the same compound, the “visual observation / organoleptic (odor) score” value [3, 8] was 1, the “visual observation / organoleptic (odor) score” value [3, 9] was 1 and the “visual observation / organoleptic (odor) score” value [3, 14] was 2. For the same compound, the “visual observation / organoleptic (odor) score” value [3, 11] was 1, the “visual observation / organoleptic (odor) score” value [3, 12] was 1 and the “visual observation / organoleptic (odor) score” value [3, 15] was 1. For the same compound, the “elimination of flumecinol from the tissue of pigs” value ([3]; pigs) was “rapidly eliminated from the tissue of pigs”, the “undesired effects detected organoleptically” value ([3]; pigs) was “no undesired effects which could be detected organoleptically” and the “visual observation / organoleptic (odor) score” value [3, 17] was 1. For the same compound, the “visual observation / organoleptic (odor) score” value [3, 18] was 1, the “visual observation / organoleptic (odor) score” value [3, 22] was 1 and the “visual observation / organoleptic (odor) score” value [3, 20] was 1. For the same compound, the “visual observation / organoleptic (odor) score” value [3, 21] was 1 and the “visual observation / organoleptic (odor) score” value [3, 23] was 1.
